Reference: patent publication US6313090A, “Methods for treating parasitic infection using thiopeptides” (The United States of America as represented by the …, priority 2000, dated 2001)
Like-named read-outs stand apart in the source and are kept apart here.

Test system: C. parvum GCH1 oocysts
Assay: Intact C. parvum oocyst assay on MDBKF5D2 cell monolayers, immunofluorescence
Format: cell-based
Conditions: for inhibition at 2000 µg/mL / inhibition at 250 µg/mL / inhibition at 500 µg/mL / inhibition at 1000 µg/mL: Cryptosporidium parvum
Protocol: In vitro doses of drugs. Thiostrepton (Calbiochem) was dissolved in sterile complete Dulbecco's Modified Eagle Medium (DMEM) supplemented with dimethyl sulfoxide (DMSO) at 0.2% and tested at concentrations of 800, 400, 200, and 100, 10, 1 and 0.1 μg/ml.
(§1) Intact C. parvum oocyst asset 3.0×10^4 C. parvum GCH1 oocysts per well were incubated in the above-mentioned concentrations of drug at 37° C. (8% CO2) on confluent MDBKF5D2 cell monolayers in 96 well microtiter plates. The level of infection in each well was determined and analyzed by immunofluorescence assay at 48 hours, using C. parvum sporozoite rabbit anti-serum (0.1%) and fluorescein-conjugated goat anti-rabbit antibody (1.0%). Percent inhibition was calculated by subtracting the mean parasite/drug from the mean parasitelmedium, divided by the mean parasite/medium, all of which was multiplied by 100. The analysis was performed using MCID and an inverted microscope.
In vitro doses of drugs. Thiostrepton (Calbiochem) and Phavic (NTZ) were dissolved in sterile complete Dulbecco's Modified Eagle Medium (DMEM) supplemented with dimethyl sulfoxide (DMSO) at 0.2% and tested at concentrations of 800, 400, 200, and 100 μg/ml. NTZ was tested at concentrations of 100, 10, 1 and 0.1 μg/ml. Paromomycin (Sigma) was dissolved in DMEM and tested at concentrations of 2000, 1000, 500 and 250 μg/ml.
as §1, with “assay .” for “asset”, “plates. For some monolayers, the oocysts were incubated in DMEM on the cell monolayers for four hours, at which time the monolayers were washed and then drug was added to the wells.” for “plates.”, “parasite/medium,” for “parasitelmedium,”
In vitro doses of drugs. Thiostrepton (Calbiochem), Phavic (NTZ) were dissolved in sterile complete Dulbecco's Modified Eagle Medium (DMEM) supplemented with dimethyl sulfoxide (DMSO) at 0.2%. Thiostrepton was tested at a concentration of 800 μg/ml. NTZ was tested at a concentration of 10 μg/ml. Paromomycin was dissolved in DMEM and tested at 2000 μg/ml. Cell monolayers were infected and washed, followed by the addition of drug at time intervals of 0, 2, 4, 8 and 24 hours.
as §1, with “assay.” for “asset”, “analyze” for “analyzed”, “parasite/medium,” for “parasitelmedium,”

NC[C@@H]1O[C@H](O[C@H]2[C@@H](O)[C@H](O[C@@H]3[C@@H](O)[C@H](N)C[C@H](N)[C@H]3O[C@H]3O[C@H](CO)[C@@H](O)[C@H](O)[C@H]3N)O[C@@H]2CO)[C@H](N)[C@@H](O)[C@@H]1O [PRM, paromomycin]
inhibition at 2000 µg/mL (0 h, Table 5, 2000 μg/ml, drug added at 0 hrs, read-out: Inhibition Percent): 77.4%
inhibition at 2000 µg/mL (0 h, Table 5, 2000 μg/ml, drug added at 0 hrs, read-out: Inhibition Score): 71 to 90%
inhibition at 2000 µg/mL (2 h, Table 5, 2000 μg/ml, drug added at 2 hrs, read-out: Inhibition Percent): 89.4%
inhibition at 2000 µg/mL (2 h, Table 5, 2000 μg/ml, drug added at 2 hrs, read-out: Inhibition Score): 71 to 90%
inhibition at 250 µg/mL (4 h, Table 4 Washed at 4 hours, 250 μg/ml, read-out: Inhibition Percent): 59.3%
inhibition at 250 µg/mL (4 h, Table 4 Washed at 4 hours, 250 μg/ml, read-out: Inhibition Score): 56 to 70%
inhibition at 500 µg/mL (4 h, Table 4 Washed at 4 hours, 500 μg/ml, read-out: Inhibition Percent): 69.2%
inhibition at 500 µg/mL (4 h, Table 4 Washed at 4 hours, 500 μg/ml, read-out: Inhibition Score): 56 to 70%
inhibition at 1000 µg/mL (4 h, Table 4 Washed at 4 hours, 1000 μg/ml, read-out: Inhibition Percent): 79.2%
inhibition at 1000 µg/mL (4 h, Table 4 Washed at 4 hours, 1000 μg/ml, read-out: Inhibition Score): 71 to 90%
inhibition at 2000 µg/mL (4 h, Table 4 Washed at 4 hours, 2000 μg/ml, read-out: Inhibition Percent): 82.5%
inhibition at 2000 µg/mL (4 h, Table 4 Washed at 4 hours, 2000 μg/ml, read-out: Inhibition Score): 71 to 90%
inhibition at 2000 µg/mL (4 h, Table 5, 2000 μg/ml, drug added at 4 hrs, read-out: Inhibition Percent): 79%
inhibition at 2000 µg/mL (4 h, Table 5, 2000 μg/ml, drug added at 4 hrs, read-out: Inhibition Score): 71 to 90%
inhibition at 2000 µg/mL (8 h, Table 5, 2000 μg/ml, drug added at 8 hrs, read-out: Inhibition Percent): 72.2%
inhibition at 2000 µg/mL (8 h, Table 5, 2000 μg/ml, drug added at 8 hrs, read-out: Inhibition Score): 71 to 90%
inhibition at 2000 µg/mL (24 h, Table 5, 2000 μg/ml, drug added at 24 hrs, read-out: Inhibition Percent): 27%
inhibition at 2000 µg/mL (24 h, Table 5, 2000 μg/ml, drug added at 24 hrs, read-out: Inhibition Score): 0 to 30%
inhibition at 2000 µg/mL (Table 1, 2000 μg/ml, read-out: Inhibition Percent): 73.2%
inhibition at 2000 µg/mL (Table 1, 2000 μg/ml, read-out: Inhibition Score): 71 to 90%
inhibition at 2000 µg/mL (Table 2, 2 mg/ml, read-out: Inhibition Percent): 69.7%
inhibition at 2000 µg/mL (Table 2, 2 mg/ml, read-out: Inhibition Score): 56 to 70%
inhibition at 250 µg/mL (Table 3 Unwashed, 250 μg/ml, read-out: Inhibition Percent): 68%
inhibition at 250 µg/mL (Table 3 Unwashed, 250 μg/ml, read-out: Inhibition Score): 56 to 70%
inhibition at 500 µg/mL (Table 3 Unwashed, 500 μg/ml, read-out: Inhibition Percent): 71.9%
inhibition at 500 µg/mL (Table 3 Unwashed, 500 μg/ml, read-out: Inhibition Score): 71 to 90%
inhibition at 1000 µg/mL (Table 3 Unwashed, 1000 μg/ml, read-out: Inhibition Percent): 79.3%
inhibition at 1000 µg/mL (Table 3 Unwashed, 1000 μg/ml, read-out: Inhibition Score): 71 to 90%
inhibition at 2000 µg/mL (Table 3 Unwashed, 2000 μg/ml, read-out: Inhibition Percent): 81.9%
inhibition at 2000 µg/mL (Table 3 Unwashed, 2000 μg/ml, read-out: Inhibition Score): 71 to 90%
inhibition at 2000 µg/mL (Table 6, 2 mg/ml, read-out: Inhibition Percent): 76.3%
inhibition at 2000 µg/mL (Table 6, 2 mg/ml, read-out: Inhibition Score): 71 to 90%
Parasite Count (Table 1, 2000 μg/ml): 278.06
Inhibition Percent (Table 2, 2 mg/ml): 76.61%
Inhibition Score (Table 2, 2 mg/ml): 3 (3: 71-90%)
Parasite Count (Table 2, 2 mg/ml): 423.81
Parasite Count (Table 2, 2 mg/ml, listed as PRM/DMSO): 369.81
Parasite Count (Table 3 Unwashed, 250 μg/ml): 453.94
Parasite Count (Table 3 Unwashed, 500 μg/ml): 398.31
Parasite Count (Table 3 Unwashed, 1000 μg/ml): 293.56
Parasite Count (Table 3 Unwashed, 2000 μg/ml): 256.38
Parasite Count (Table 4 Washed at 4 hours, 250 μg/ml): 492.13
Parasite Count (Table 4 Washed at 4 hours, 500 μg/ml): 372.44
Parasite Count (Table 4 Washed at 4 hours, 1000 μg/ml): 251.88
Parasite Count (Table 4 Washed at 4 hours, 2000 μg/ml): 211.38
Parasite Count (Table 5, 2000 μg/ml, drug added at 0 hrs): 287.63
Parasite Count (Table 5, 2000 μg/ml, drug added at 2 hrs): 134.94
Parasite Count (Table 5, 2000 μg/ml, drug added at 4 hrs): 267.25
Parasite Count (Table 5, 2000 μg/ml, drug added at 8 hrs): 354.06
Parasite Count (Table 5, 2000 μg/ml, drug added at 24 hrs): 929.19
Parasite Count (Table 6, 2 mg/ml): 325.75
activity when drug is added 24 hours after infection (intracellular stages only): activity drops
